Our source for the IC50 values is patent US20210238139A1, “MODULATORS OF TRYPTOPHAN CATABOLISM” (E-Therapeutics PLC, priority 2018, published 2021).

pIC50: −log10 of the molar value. A value given as a limit tells only on which side of the number the result lay.

Test [1] addresses T1, TDO2 enzyme (Homo sapiens, UniProt P48775).
T1 construct: purchased Netherlands Translational Research Center B.V. NTRC-hTDO-1K
As to the kind of experiment: TDO2 enzyme inhibition assay (hTDO2 assay kit, NFK-green). The following applies: TDO2 enzyme 50 nM, tryptophan 200 μM, top concentration 30 μM; read-out: TDO2 Biochemical assay IC50. The method, then: The effect of compounds on TDO2 enzymatic activity was assess by use of an hTDO2 assay kit (Netherlands Translational Research Center B.V., Cat #NTRC-hTDO-1K). TDO2 enzyme and tryptophan substrate are diluted in assay buffer. Compounds are tested at 8 consecutive 3-fold dilutions starting from 30 μM. 267 nL of compound is added per well of a 384-well plate followed by addition of 10 μL of assay buffer. TDO2 enzyme is added at a final concentration of 50 nM and pre-incubated for 60 min at room temperature in the dark. Tryptophan substrate solution is then added at final concentration of 200 μM to all wells and the plate incubated for 15 min at RT in the dark. Finally NFK-green reagent is added at ⅕ of total reaction volume and incubated for 4 h at RT in the dark. After incubation fluorescence is measured at Ex405 nm-Em535 nm using EnVision plate reader.
(§1) IC50 values are determined using GraphPad Prism software 5.04 for Windows by plotting percent of inhibition against log 10 concentrations of compounds using a four-parametric sigmoidal curve with a variable slope.

The subject of test [2] is SK-OV-3 cells. The test is described as follows: Effect of compounds on tryptophan catabolism in SK-OV-3 cell line (inhibition of kynurenine production, LC-MS/MS). The conditions noted are these: Homo sapiens, SK-OV-3, 24 h, SK-OV-3 cell line, 24 h incubation, kynurenine in supernatant by LC-MS/MS; read-out: IC50 Ranges (ic50 values for inhibition of Kynurenine production). It is filed as cell-based. In short, it runs like this:
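Cells seeded overnight in McCoy's 5A/10% FBS, then switched to DMEM F-12 with 6 mg/mL L-tryptophan; compounds added at 8 3-fold dilutions from 30 μM, in duplicate, 24 h at 37 °C. Supernatant kynurenine measured by LC-MS/MS; ATP-based viability run in parallel; IC50 from % inhibition of Kyn production.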

Test [3] deals with T2, IDO1 enzyme (Homo sapiens, UniProt P14902).
T2 construct: purchased Netherlands Translational Research Center B.V. NTRC-hIDO-1K
The test is described as follows: IDO1 enzyme inhibition assay (hIDO assay kit, NFK-green). The conditions noted are these: IDO1 enzyme 25 nM, tryptophan 100 μM, top concentration 30 μM; read-out: IDO1 Biochemical assay IC50. As to the method:
The effect of compounds on IDO1 enzymatic activity was assessed by use of a hIDO assay kit (Netherlands Translational Research Center B.V., Cat #NTRC-hIDO-1K). IDO1 enzyme and tryptophan substrate are diluted in assay buffer. Compounds are tested at 8 consecutive 3-fold dilutions starting from 30 μM. 267 nL of compound is added per well of a 384-well plate followed by addition of 10 μL of assay buffer. IDO1 enzyme is added at a final concentration of 25 nM and pre-incubated for 30 min at room temperature in the dark. Tryptophan substrate solution is then added at final concentration of 100 μM to all wells and the plate incubated for 60 min at RT in the dark. Finally NFK-green reagent is added at ⅕ of total reaction volume and incubated for 4 h at RT in the dark. After incubation fluorescence is measured at Ex405 nm-Em535 nm using EnVision plate reader.
as §1

T1 sequence (P48775 whole entry): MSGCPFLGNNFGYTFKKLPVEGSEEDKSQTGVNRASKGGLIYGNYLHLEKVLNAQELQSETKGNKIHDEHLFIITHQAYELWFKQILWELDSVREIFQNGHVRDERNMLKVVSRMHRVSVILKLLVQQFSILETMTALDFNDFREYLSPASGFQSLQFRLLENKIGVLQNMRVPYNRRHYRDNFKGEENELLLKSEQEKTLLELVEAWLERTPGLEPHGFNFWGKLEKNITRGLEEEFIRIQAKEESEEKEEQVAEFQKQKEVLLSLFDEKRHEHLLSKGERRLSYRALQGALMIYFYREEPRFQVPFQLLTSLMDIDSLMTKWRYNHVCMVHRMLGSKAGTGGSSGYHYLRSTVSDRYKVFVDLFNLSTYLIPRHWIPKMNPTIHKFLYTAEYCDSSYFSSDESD
T2 sequence (P14902 whole entry): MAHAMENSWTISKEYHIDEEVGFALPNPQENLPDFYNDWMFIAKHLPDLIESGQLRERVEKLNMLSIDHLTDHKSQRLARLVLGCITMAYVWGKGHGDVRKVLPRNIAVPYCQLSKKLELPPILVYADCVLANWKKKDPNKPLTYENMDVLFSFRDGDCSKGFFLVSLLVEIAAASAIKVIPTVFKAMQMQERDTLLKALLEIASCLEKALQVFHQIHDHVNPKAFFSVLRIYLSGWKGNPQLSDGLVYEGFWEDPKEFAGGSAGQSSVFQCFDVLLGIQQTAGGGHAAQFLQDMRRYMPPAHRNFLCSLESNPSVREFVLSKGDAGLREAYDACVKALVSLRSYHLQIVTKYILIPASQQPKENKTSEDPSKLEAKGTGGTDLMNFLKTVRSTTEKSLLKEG

On to `Cc1ccc(CN(C(=O)Nc2ccc(Cl)nc2)C2CCCC2)o1` [Compound 92, 3-(6-chloro-3-pyridyl)-1-cyclopentyl-1-[(5-methyl-2-furyl)methyl]urea], for which the pIC50 – broadly, the IC50 on a negative log10 scale, so that one unit is a factor of ten – in test [1] is below 4.52; in test [2], above 7.00. Take `Cn1nccc1N(Cc1ccc2ncsc2c1)C(=O)Nc1ccc(C#N)cc1` [Compound 276, 1-(1,3-benzothiazol-6-ylmethyl)-3-(4-cyanophenyl)-1-(2-methyl-iH-pyrazol-3-yl) urea]: the pIC50 is below 4.52 in test [3] and 5.30 to 6.00 in test [2].

Take `Cc1ccc(CN(C(=O)Nc2ccc(-c3cnoc3)cc2)C2CCCC2)o1` [Compound 105, 1-cyclopentyl-3-(4-isoxazol-4-ylphenyl)-1-[(5-methyl-2-furyl)methyl]urea]: the pIC50 in test [1] is below 4.52; in test [2], 6.30 to 7.00. In the same order, the values of `O=C(Nc1ccccc1)N(Cc1ccncc1)C1CCCC1` [Compound 74, 1-cyclopentyl-3-phenyl-1-(4-pyridylmethyl)urea] are below 4.52 and below 5.30. With `O=C(Nc1ccc(Cl)cc1)N(Cc1cc2ccccc2o1)C1CCCC1` [Compound 130, 1-(benzofuran-2-ylmethyl)-3-(4-chlorophenyl)-1-cyclopentyl-urea], the results for the pIC50 in test [1] and in test [2] were below 4.52 and above 7.00, respectively. The matching figures for `Cc1ccc(CN(C(=O)Nc2ccc(N3CCOCC3)cc2)C2CCCC2)o1` [Compound 123, 1-cyclopentyl-1-[(5-methyl-2-furyl)methyl]-3-(4-morpholinophenyl)urea]: below 4.52 and below 5.30. In the same order, the values of `CCc1ccc(NC(=O)N(Cc2ccccn2)C2CCCCC2)cc1` [Compound 21, 1-cyclohexyl-3-(4-ethylphenyl)-1-(2-pyridylmethyl)urea] are below 4.52 and 5.30 to 6.00. The matching figures for `Cc1ccc(C(C)N(C(=O)Nc2ccc(Cl)cc2)C2CCCC2)o1` (racemic) [Compound 185, 3-(4-chlorophenyl)-1-cyclopentyl-1-[1-(5-methyl-2-furyl)ethyl]urea]: below 4.52 and above 7.00. Take `N#Cc1ccc(NC(=O)N(Cc2cn3ccsc3n2)C2CCC2)cc1` [Compound 270, 3-(4-cyanophenyl)-1-cyclobutyl-1-(imidazo[2,1-b]thiazol-6-ylmethyl)urea]: the pIC50 in test [3] was below 4.52; in test [2] it was 6.00 to 6.30. In the same order, the values of `Cc1ccc(CN(C(=O)Nc2ccc(Cl)cc2)c2ccnn2C)o1` [Compound 220, 3-(4-chlorophenyl)-1-[(5-methyl-2-furyl)methyl]-1-(2-methylpyrazol-3-yl)urea] are below 4.52 and below 5.30. As to `Cc1ccc(CN(C(=O)Nc2ccc(C#CCN)cc2)C2CCCC2)o1` [Compound 110], the figures for the pIC50 in test [1] and in test [2] were below 4.52 and 6.30 to 7.00, respectively. In the same order, the values of `Cc1ccc(CN(C(=O)Nc2ccc(F)c(O)c2)C2CCCC2)o1` [Compound 104, 1-cyclopentyl-3-(4-fluoro-3-hydroxy-phenyl)-1-[(5-methyl-2-furyl)methyl]urea] are below 4.52 and below 5.30. For the compound `O=C(Nc1ccccc1)N(Cc1ccccc1Cl)C1CCCC1` [Compound 38, 1-[(2-chlorophenyl)methyl]-1-cyclopentyl-3-phenyl-urea], the pIC50 in test [2] is 6.00 to 6.30. Regarding `O=C(Nc1ccccc1Cl)N(Cc1cccs1)C1CCCC1` [Compound 2, 3-(2-chlorophenyl)-1-cyclopentyl-1-(2-thienylmethyl)urea], the pIC50 in test [2] is 5.30 to 6.00.

With `Cc1ccc(CN(C(=O)Nc2ccc(-c3cnn(C(C)(C)CO)c3)cc2)C2CCCC2)o1` [Compound 101, 1-cyclopentyl-3-[4-[1-(2-hydroxy-1,1-dimethyl-ethyl)pyrazol-4-yl]phenyl]-1-[(5-methyl-2-furyl)methyl]urea], in test [2], the pIC50 was below 5.30.

For the compound `Cc1ccc(CN(C(=O)Nc2ccc(Cl)cc2)C2CC(F)(F)C2)o1` [Compound 247, 3-(4-chlorophenyl)-1-(3,3-difluorocyclobutyl)-1-[(5-methyl-2-furyl)methyl]urea], the pIC50 in test [2] is 6.30 to 7.00. On the same count and under the same terms, the same measure for `O=C(Nc1ccncc1)N(Cc1cccs1)C1CCCC1` [Compound 11, 1-cyclopentyl-3-(4-pyridyl)-1-(2-thienylmethyl)urea]: 5.30 to 6.00; for `O=C(Nc1ccc(Cl)cc1)N(Cc1nc2ccccc2s1)C1CCC1` [Compound 248, 1-(1,3-benzothiazol-2-ylmethyl)-3-(4-chlorophenyl)-1-cyclobutyl-urea]: 6.30 to 7.00. Still for that read-out and setting: the same measure for `O=C(Nc1ccccc1F)N(Cc1cccs1)C1CCCC1` [Compound 54, 1-cyclopentyl-3-(2-fluorophenyl)-1-(2-thienylmethyl)urea]: 5.30 to 6.00; for `Cc1ccc(CN(C(=O)Nc2ccc(C#N)cc2)C2CCC(F)(F)C2)o1` (stereo not shown) [Compound 244, 3-(4-cyanophenyl)-1-(3,3-difluorocyclopentyl)-1-[(5-methyl-2-furyl)methyl]urea]: 6.30 to 7.00. Same read-out and setting: under `Cc1oc(-c2ccccc2)nc1CNC(=O)Nc1ccccc1` [Compound 203, 1-[(5-methyl-2-phenyl-oxazol-4-yl)methyl]-3-phenyl-urea] stands 5.30 to 6.00; under `O=C(Nc1ccc(Cl)cc1)N(Cc1cc2ncccc2o1)C1CCC1` [Compound 252, 3-(4-chlorophenyl)-1-cyclobutyl-1-(furo[3,2-b]pyridin-2-ylmethyl)urea], below 5.30.

As for `N#Cc1ccnc(CN(C(=O)Nc2ccc(Cl)cc2)C2CCCC2)c1` [Compound 116, 3-(4-chlorophenyl)-1-[(4-cyano-2-pyridyl)methyl]-1-cyclopentyl-urea], the pIC50 in test [2] is 6.30 to 7.00. For `Cc1ncc(CN(C(=O)Nc2ccc(C#N)cc2)C2CCCC2)o1` [Compound 291, 3-(4-cyanophenyl)-1-cyclopentyl-1-[(2-methyloxazol-5-yl)methyl]urea], the pIC50 in test [2] was 6.00 to 6.30. On the same count and under the same terms, the same measure for `O=C(Nc1ccccc1)N(Cc1ccoc1)C1CCCC1` [Compound 64, 1-cyclopentyl-1-(3-furylmethyl)-3-phenyl-urea]: 5.30 to 6.00; for `N#Cc1cc(CN(C(=O)Nc2ccc(F)cc2)C2CCCC2)ccc1F` [Compound 53, 1-[(3-cyano-4-fluoro-phenyl)methyl]-1-cyclopentyl-3-(4-fluorophenyl)urea]: 6.30 to 7.00.

As to `CCc1ccc(CN(C(=O)Nc2ccc(C#N)cc2)C2CCCC2)o1` [Compound 295, 3-(4-cyanophenyl)-1-cyclopentyl-1-[(5-ethyl-2-furyl)methyl]urea], in test [2], the pIC50 was above 7.00. The same measure, in the same setting: under `Cc1ccc(CN(C(=O)Nc2ccc(Cl)cc2)c2nonc2C)o1` [Compound 298, 3-(4-chlorophenyl)-1-[(5-methyl-2-furyl)methyl]-1-(4-methyl-1,2,5-oxadiazol-3-yl)urea] stands above 7.00. Still for that read-out and setting: the same measure for `O=C(Nc1ccc(Cl)cc1Cl)N(Cc1cccs1)C1CCCC1` [Compound 59, 1-cyclopentyl-3-(2,4-dichlorophenyl)-1-(2-thienylmethyl)urea]: 6.00 to 6.30; for `Cc1ccc(CN(C(=O)Nc2ccc(Cl)cc2)[C@H]2C[C@@H](F)C2)o1` [Compound 271, 3-(4-chlorophenyl)-1-(3-fluorocyclobutyl)-1-[(5-methyl-2-furyl)methyl]urea]: 6.30 to 7.00. Still for that read-out and setting: the same measure for `Cc1ccc(CN(C(=O)Nc2ccc(OC(F)F)cc2)c2cnoc2C)o1` [Compound 301, 3-[4-(difluoromethoxy)phenyl]-1-[(5-methyl-2-furyl)methyl]-1-(5-methylisoxazol-4-yl)urea]: above 7.00. As to `N#Cc1cccc(CN(C(=O)Nc2ccc(C#CCO)cc2)C2CCC2)n1` [Compound 319], in test [2], the pIC50 is above 7.00. Regarding `Cc1ccc(CN(C(=O)Nc2ccc(O)cc2)C2CCCC2)o1` [Compound 303, 1-cyclopentyl-3-(4-hydroxyphenyl)-1-[(5-methyl-furyl)methyl]urea], the pIC50 in test [2] was below 5.30. On the same count and under the same terms, under `Cc1ccc(CN(C(=O)Nc2ccc(C#N)cc2)C2CC(F)C2)o1` (stereo not shown) [Compound 208, 3-(4-cyanophenyl)-1-(3-fluorocyclobutyl)-1-[(5-methyl-2-furyl)methyl]urea] stands 6.00 to 6.30.
